Assay results as given in ChEMBL document CHEMBL5154858, “Pocket-to-Lead: Structure-Based De Novo Design of Novel Non-peptidic HIV-1 Protease Inhibitors Using the Ligand Binding Pocket as a Template” (J Med Chem, 2022).

Assays:
[1] = target: Human immunodeficiency virus type 1 protease (Human immunodeficiency virus 1, UniProt Q72874); assay: Inhibition of wild type HIV1 protease expressed in Escherichia coli BL21 DE3 assessed as cleavage of fluorogenic substrate using EDANS-RESGIFLETSKR-DABCYL preincubated for 15 mins with compound followed by substrate addition and measured after 60 mins by microplate reader analysis
[2] = test system: Human immunodeficiency virus 1; assay: Antiviral activity against HIV-1 IIIB infected in human MT4 cells assessed as inhibition of virus-induced cell death preincubated for 1 hr with compound followed by viral infection measured after 5 days by MTT assay; assay type: functional, organism-based; conditions: Human immunodeficiency virus 1, IIIB

| SMILES | IC50 [1] [µM] | EC50 [2] [µM] |
| --- | --- | --- |
| COc1ccc(CN2C[C@H](O)[C@@](CC(C)C)(c3ccc(S(C)(=O)=O)cc3)C2=O)cc1 (mixture of isomers) | 34 | – |
| CCC[C@]1(c2ccc(S(C)(=O)=O)cc2)C(=O)N(Cc2ccc(OC)cc2)C[C@@H]1O (mixture of isomers) | 32 | – |
| COc1ccc(CN2C[C@H](O)[C@@](CCC(C)C)(c3ccc(S(C)(=O)=O)cc3OC(C)C)C2=O)cc1 (mixture of isomers) | 0.082 | 11 |
| COc1ccc(CN2C[C@H](O)[C@@](CCC(C)C)(c3ccc(S(C)(=O)=O)cc3O[C@@H](C)CO)C2=O)cc1 (mixture of isomers) | 0.0071 | 0.86 |
| COc1ccc(CN2C[C@H](O)[C@@](CCC(C)C)(c3ccc(S(C)(=O)=O)cc3)C2=O)cc1 (mixture of isomers) | 2 | > 20 |
| COc1ccc(CN2C[C@@H](O)[C@@](Cc3ccc(F)cc3)(c3ccc(S(C)(=O)=O)cc3)C2=O)cc1 (mixture of isomers) | 77 | – |
| COc1ccc(CN2C[C@H](O)[C@@](Cc3ccc(F)cc3)(c3ccc(S(C)(=O)=O)cc3)C2=O)cc1 (racemic) | 54 | – |
